# Results reported in patent US8455475B2 (Gruenenthal GmbH, priority 2009, dated 2013).
# Target: T1, rat B1R (bradykinin receptor 1) (Rattus norvegicus, UniProt P97583)
# T1 construct: expressed in transfected cells; host or cells: CHO K1 cells
# T1 sequence (P97583 1-337): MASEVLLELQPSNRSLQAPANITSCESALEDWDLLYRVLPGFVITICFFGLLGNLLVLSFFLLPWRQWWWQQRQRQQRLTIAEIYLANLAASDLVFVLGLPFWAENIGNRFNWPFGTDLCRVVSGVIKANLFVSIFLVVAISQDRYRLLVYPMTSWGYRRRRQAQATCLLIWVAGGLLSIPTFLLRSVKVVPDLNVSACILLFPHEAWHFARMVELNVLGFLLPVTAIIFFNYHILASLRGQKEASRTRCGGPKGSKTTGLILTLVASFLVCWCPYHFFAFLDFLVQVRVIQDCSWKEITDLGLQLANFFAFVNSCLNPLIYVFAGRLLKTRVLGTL
# Assay: FLIPR Ca2+ assay (Fluo-4) on CHO K1 cells stably transfected with the B1R gene of the rat (rB1R cells): % inhibition at 10 μM / IC50, agonist Des-Arg9-bradykinin
# Type: cell-based
# Settings: CHO-K1, rat B1R
# Experimental: The agonistic or antagonistic action of substances can be quantified on the bradykinin receptor 1 (B1R) of the human and rat species with ectopically expressing cell lines (CHO K1 cells) and with the aid of a Ca^2+-sensitive dyestuff (Fluo-4) in a fluorescent imaging plate reader (FLIPR). The figure in % activation is based on the Ca^2+ signal after addition of Lys-Des-Arg^9-bradykinin (0.5 nM) or Des-Arg^9-bradykinin (100 nM). Antagonists lead to a suppression of the Ca^2+ inflow after addition of the agonist. % inhibition compared with the maximum achievable inhibition is stated.
# The agonistic or antagonistic action of substances can be determined on the bradykinin receptor 1 (B1R) of the human and rat species with the following assay. In accordance with this assay, the Ca^2+ inflow through the channel is quantified with the aid of a Ca^2+-sensitive dyestuff (type Fluo-4, Molecular Probes Europe BV, Leiden, Holland) in a fluorescent imaging plate reader (FLIPR, Molecular Devices, Sunnyvale, USA).
# Chinese hamster ovary cells (CHO K1 cells) transfected stably with the human B1R gene (hB1R cells) or the B1R gene of the rat (rB1R cells) are used. For functional studies, these cells are plated out on black 96-well plates with a clear base (BD Biosciences, Heidelberg, Germany or Greiner, Frickenhausen, Germany) in a density of 20,000-35,000 cells/well. The cells are left overnight at 37° C. and 5% CO2 in culture medium (hB1R cells: Nutrient Mixture Ham's F12, Gibco Invitrogen GmbH, Karlsruhe, Germany or DMEM, Sigma-Aldrich, Taufkirchen, Germany; rB1R cells: D-MEM/F12, Gibco Invitrogen GmbH, Karlsruhe, Germany) with 10 vol. % FBS (foetal bovine serum, Gibco Invitrogen GmbH, Karlsruhe, Germany or PAN Biotech GmbH, Aidenbach, Germany). On the following day, the cells are loaded for 60 min at 37° C. with 2.13 μM Fluo-4 (Molecular Probes Europe BV, Leiden Holland) in HBSS buffer (Hank's buffered saline solution, Gibco Invitrogen GmbH, Karlsruhe, Germany) with 2.5 mM probenecid (Sigma-Aldrich, Taufkirchen, Germany) and 10 mM HEPES (Sigma-Aldrich, Taufkirchen, Germany). The plates are then washed 2× with HBSS buffer, and HBSS buffer which additionally contains 0.1% BSA (bovine serum albumin; Sigma-Aldrich, Taufkirchen, Germany), 5.6 mM glucose and 0.05% gelatine (Merck KGaA, Darmstadt, Germany) is added. After a further incubation of 20 minutes at room temperature, the plates are inserted into the FLIPR for the Ca^2+ measurement. Alternatively, the plates are washed with buffer A (15 mM HEPES, 80 mM NaCl, 5 mM KCl, 1.2 mM CaCl2, 0.7 mM MgSO4, 2 g/l glucose, 2.5 mM probenecid), buffer A is added and the plates are loaded with 2.5 μM Fluo-4 and 0.025% Pluronic F127 (Sigma-Aldrich, Taufkirchen, Germany). Thereafter, the cells are washed 2× with buffer A and incubated for 30 minutes at room temperature with buffer A, which additionally contains 0.05% BSA and 0.05% gelatine, and thereafter inserted into the FLIPR for the Ca^2+ measurement. The Ca^2+-dependent fluorescence is measured here before and after addition of substances (λex=488 nm, λem=540 nm). Quantification is by measurement of the highest fluorescence intensity (FC, fluorescence counts) over time.
# The FLIPR protocol consists of 2 additions of substance. Test substances (10 μM) are first pipetted on to the cells and the Ca^2+ inflow is compared with the control (hB1R: Lys-Des-Arg^9-bradykinin>=50 nM; rB1R: Des-Arg^9-bradykinin 10 μM). This gives the result in % activation based on the Ca^2+ signal after addition of Lys-Des-Arg^9-bradykinin (>=50 nM) or Des-Arg^9-bradykinin (10 μM). After incubation for 10-20 minutes, Lys-Des-Arg^9-bradykinin (hB1R) or Des-Arg^9-bradykinin (rB1R) in the concentration of the EC80 is applied and the inflow of Ca^2+ is likewise determined. Antagonists lead to a suppression of the Ca^2+ inflow. % inhibition compared with the maximum achievable inhibition is calculated.
# For determination of the IC50 value, the substances are added in various concentrations. […]
row,Compound,inhibition at 10 µM [%]
1,"O=C(NC1CCc2ccc(C(=O)N3CCC4(CCN(c5ccncc5)CC4)C3)cc21)C1CC1 (stereo not shown) [IND_CC-370, N-[6-(8-Pyridin-4-yl-2,8-diazaspiro[4.5]decane-2-carbonyl)-2,3-dihydro-1H-inden-1-yl]-cyclopropanecarboxylic acid amide]",100
2,"O=C(NC1CCc2ccc(C(=O)N3CCC4(CCN(Cc5cc(F)ccc5F)CC4)C3)cc21)c1sccc1Cl (stereo not shown) [IND_CC-547, 3-Chloro-N-[6-[8-[(2,5-difluoro-phenyl)-methyl]-2,8-diazaspiro[4.5]decane-2-carbonyl]-2,3-dihydro-1H-inden-1-yl]-thiophene-2-carboxylic acid amide]",71
3,"N#Cc1ccccc1CN1CCC2(CC1)CCN(C(=O)c1ccc3c(c1)C(NC(=O)c1c(F)cccc1Cl)CC3)CC2 (stereo not shown) [IND_CC-801, 2-Chloro-N-[6-[9-[(2-cyano-phenyl)-methyl]-3,9-diazaspiro[5.5]undecane-3-carbonyl]-2,3-dihydro-1H-inden-1-yl]-6-fluoro-benzamide]",92
4,"O=C(NC1CCc2ccc(C(=O)N3CCC4(CCN(C(=O)NC5CCCCC5)CC4)CC3)cc21)c1ccccc1Cl (stereo not shown) [IND_CC-708, 3-[3-[(2-Chloro-benzoyl)amino]-2,3-dihydro-1H-indene-5-carbonyl]-N-cyclohexyl-3,9-diazaspiro[5.5]undecane-9-carboxylic acid amide]",99
5,"CC1(C)CC(NS(=O)(=O)c2ccc(Cl)cc2Cl)c2cc(C(=O)N3CCC4(CC3)CCN(c3ccncc3)CC4)ccc21 (stereo not shown) [IND_CC-335, 2,4-Dichloro-N-[3,3-dimethyl-6-(3-pyridin-4-yl-3,9-diazaspiro[5.5]undecane-9-carbonyl)-1,2-dihydro-inden-1-yl]-benzenesulfonic acid amide]",102
6,"CC(C)CN1CCC2(CC1)CCN(C(=O)c1ccc3c(c1)C(NC(=O)c1cc(Cl)ccc1F)CC3)CC2 (stereo not shown) [IND_CC-680, 5-Chloro-2-fluoro-N-[6-[9-(2-methyl-propyl)-3,9-diazaspiro[5.5]undecane-3-carbonyl]-2,3-dihydro-1H-inden-1-yl]-benzamide]",54
7,"O=C(NC1CCc2ccc(C(=O)N3CCC4(CCN(C(=O)c5ccc(F)cc5Cl)CC4)C3)cc21)c1ccccc1Cl (stereo not shown) [IND_CC-575, 2-Chloro-N-[6-[8-(2-chloro-4-fluoro-benzoyl)-2,8-diazaspiro[4.5]decane-2-carbonyl]-2,3-dihydro-1H-inden-1-yl]-benzamide]",78
8,"COc1cccc(F)c1CN1CCC2(CC1)CCN(C(=O)c1ccc3c(c1)C(NC(=O)c1c(F)cccc1Cl)CC3)CC2 (stereo not shown) [IND_CC-793, 2-Chloro-6-fluoro-N-[6-[9-[(2-fluoro-6-methoxy-phenyl)-methyl]-3,9-diazaspiro[5.5]undecane-3-carbonyl]-2,3-dihydro-1H-inden-1-yl]-benzamide]",79
9,"O=C(NC1CCc2ccc(C(=O)N3CCC4(CC3)CCN(c3ccc(C(F)(F)F)cc3)CC4)cc21)c1c(Cl)cccc1Cl (stereo not shown) [IND_CC-286, 2,6-Dichloro-N-[6-[9-[4-(trifluoromethyl)-phenyl]-3,9-diazaspiro[5.5]undecane-3-carbonyl]-2,3-dihydro-1H-inden-1-yl]-benzamide]",90
10,"CN(C)c1ncc(CN2CCC3(CC2)CCN(C(=O)c2ccc4c(c2)C(NC(=O)c2cc(C(F)(F)F)ccc2Cl)CC4)CC3)cn1 (stereo not shown) [IND_CC-694, 2-Chloro-N-[6-[9-[(2-dimethylamino-pyrimidin-5-yl)-methyl]-3,9-diazaspiro[5.5]-undecane-3-carbonyl]-2,3-dihydro-1H-inden-1-yl]-5-(trifluoromethyl)-benzamide]",100
11,"O=C(NC1CCc2ccc(C(=O)N3CCC4(CCN(CCCc5ccc(F)cc5)CC4)C3)cc21)c1cccc(Cl)c1Cl (stereo not shown) [IND_CC-751, 2,3-Dichloro-N-[6-[8-[3-(4-fluorophenyl)-propyl]-2,8-diazaspiro[4.5]decane-2-carbonyl]-2,3-dihydro-1H-inden-1-yl]-benzamide]",98
12,"O=C(NC1CCc2ccc(C(=O)N3CCC4(CC3)CCN(c3ccncc3)C4)cc21)c1ccccc1F (stereo not shown) [IND_CC-401, 2-Fluoro-N-[6-(2-pyridin-4-yl-2,8-diazaspiro[4.5]decane-8-carbonyl)-2,3-dihydro-1H-inden-1-yl]-benzamide]",103
13,"CC(C)(C)CC(=O)NC1CCc2ccc(C(=O)N3CCC4(CC3)CCN(c3ccncc3)CC4)cc21 (stereo not shown) [IND_CC-371, 3,3-Dimethyl-N-[6-(9-pyridin-4-yl-3,9-diazaspiro[5.5]undecane-3-carbonyl)-2,3-dihydro-1H-inden-1-yl]-butyramide]",104
14,"CCC(CC)CN1CCC2(CC1)CCN(C(=O)c1ccc3c(c1)C(NC(=O)c1c(C)cccc1Cl)CC3)C2 (stereo not shown) [IND_CC-768, 2-Chloro-N-[6-[8-(2-ethyl-butyl)-2,8-diazaspiro[4.5]decane-2-carbonyl]-2,3-dihydro-1H-inden-1-yl]-6-methyl-benzamide]",79
15,"O=C(NC1CCc2ccc(C(=O)N3CCC4(CCN(C(=O)C5CC5)CC4)C3)cc21)c1sccc1Cl (stereo not shown) [IND_CC-582, 3-Chloro-N-[6-[8-(cyclopropanecarbonyl)-2,8-diazaspiro[4.5]decane-2-carbonyl]-2,3-dihydro-1H-inden-1-yl]-thiophene-2-carboxylic acid amide]",58
16,"CN(C(=O)C1CCC1)C1CCc2ccc(C(=O)N3CCC4(CC3)CCN(c3ccncc3)CC4)cc21 (stereo not shown) [IND_CC-414, N-Methyl-N-[6-(9-pyridin-4-yl-3,9-diazaspiro[5.5]undecane-3-carbonyl)-2,3-dihydro-1H-inden-1-yl]-cyclobutanecarboxylic acid amide]",102
17,"CN(C1CCc2ccc(C(=O)N3CCC4(CC3)CCN(c3ccncc3)CC4)cc21)S(=O)(=O)Cc1cccc(C(F)(F)F)c1 (stereo not shown) [IND_CC-390, N-Methyl-N-[6-(9-pyridin-4-yl-3,9-diazaspiro[5.5]undecane-3-carbonyl)-2,3-dihydro-1H-inden-1-yl]-1-[3-(trifluoromethyl)phenyl]-methanesulfonic acid amide]",100
18,"CN(C)c1ncc(CN2CCC3(CC2)CCN(C(=O)c2ccc4c(c2)C(NC(=O)c2cc(Cl)ccc2F)CC4)CC3)cn1 (stereo not shown) [IND_CC-676, 5-Chloro-N-[6-[9-[(2-dimethylamino-pyrimidin-5-yl)-methyl]-3,9-diazaspiro-[5.5]undecane-3-carbonyl]-2,3-dihydro-1H-inden-1-yl]-2-fluoro-benzamide]",74
19,"COc1ccc(CN2CCC3(CC2)CCN(C(=O)c2ccc4c(c2)C(NC(=O)c2sccc2Cl)CC4)C3)cc1F (stereo not shown) [IND_CC-548, 3-Chloro-N-[6-[8-[(3-fluoro-4-methoxy-phenyl)-methyl]-2,8-diazaspiro[4.5]decane-2-carbonyl]-2,3-dihydro-1H-inden-1-yl]-thiophene-2-carboxylic acid amide]",66
